Results reported in ChEMBL document CHEMBL3091290, “2-(2-Phenylmorpholin-4-yl)pyrimidin-4(3H)-ones; a new class of potent, selective and orally active glycogen synthase kinase-3β inhibitors” (Bioorg Med Chem Lett, 2013).

How the values were obtained:
[1] = biological target: Glycogen synthase kinase-3 beta (Homo sapiens, UniProt P49841); assay: Inhibition of human recombinant GSK-3beta using prephosphorylated GS1 peptide and [gamma-32P]ATP as substrate after 1 hr by liquid scintillation spectrometry
Cytochrome P450 3A4 = Cytochrome P450 3A4 (Homo sapiens, UniProt P08684); assay: Inhibition of recombinant human CYP3A4; assay type: ADME
Cytochrome P450 2D6 = Cytochrome P450 2D6 (Homo sapiens, UniProt P10635); assay: Inhibition of recombinant human CYP2D6; assay type: ADME
Cytochrome P450 1A2 = biological target: T1, Cytochrome P450 1A2 (Homo sapiens, UniProt P05177); assay: Inhibition of recombinant human CYP1A2; assay type: ADME
T1 sequence (P05177 whole entry): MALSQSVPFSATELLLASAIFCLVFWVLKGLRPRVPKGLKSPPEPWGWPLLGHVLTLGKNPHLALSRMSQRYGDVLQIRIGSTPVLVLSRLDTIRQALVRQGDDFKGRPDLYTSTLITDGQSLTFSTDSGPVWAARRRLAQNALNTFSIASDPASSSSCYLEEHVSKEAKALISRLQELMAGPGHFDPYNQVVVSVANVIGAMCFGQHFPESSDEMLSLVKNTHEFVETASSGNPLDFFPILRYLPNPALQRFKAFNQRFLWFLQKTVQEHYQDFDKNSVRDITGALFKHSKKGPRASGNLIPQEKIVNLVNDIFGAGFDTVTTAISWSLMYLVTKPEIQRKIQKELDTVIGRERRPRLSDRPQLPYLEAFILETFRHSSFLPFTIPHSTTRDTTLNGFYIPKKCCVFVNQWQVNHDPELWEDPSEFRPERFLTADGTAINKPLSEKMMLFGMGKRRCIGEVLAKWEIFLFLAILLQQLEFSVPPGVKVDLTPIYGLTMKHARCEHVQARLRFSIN

Liver microsome [2] = assay: Intrinsic clearance in human liver microsomes; assay type: ADME
[3] = Oral bioavailability in Sprague-Dawley rat at 10 mg/kg; assay type: ADME, organism-based; settings: in vivo
Rattus norvegicus = assay: Cmax in Sprague-Dawley rat at 10 mg/kg, po; assay type: ADME, organism-based; set-up: dose 10 mg/kg, route oral; settings: in vivo
[4] = Half life in Sprague-Dawley rat at 10 mg/kg, po; assay type: ADME, organism-based; set-up: dose 10 mg/kg, route oral; settings: in vivo
[5] = Permeability of the compound across human Caco2 cells; assay type: ADME, cell-based; settings: Caco-2, read-out: permeability
[6] = AUC (0 to infinity) in Sprague-Dawley rat at 10 mg/kg, po; assay type: ADME, organism-based; set-up: time infinity, dose 10 mg/kg, route oral; settings: plasma
[7] = biological target: Casein kinase I isoform alpha (Homo sapiens, UniProt P48729); assay: Inhibition of CK1 (unknown origin)
[8] = Ratio of drug level in brain (0 to infinity) to plasma (0 to infinity) in ICR mouse at 1 mg/kg, po; assay type: ADME, organism-based; set-up: dose 1 mg/kg, route oral; settings: read-out: BPR
[9] = Total clearance in Sprague-Dawley rat at 1 mg/kg, iv; assay type: ADME, organism-based; set-up: dose 1 mg/kg, route intravenous; settings: in vivo
MDR1 (P-glycoprotein) = assay: Permeability efflux ratio in MDR1 expressing pig LLC cells; assay type: ADME, cell-based, Sus scrofa; settings: LLC-PK1
[10] = Volume of distribution at steady state in Sprague-Dawley rat at 1 mg/kg, iv; assay type: ADME, organism-based; set-up: dose 1 mg/kg, route intravenous; settings: in vivo, read-out: Vdss
Liver microsome [11] = assay: Clearance in rat liver microsomes; assay type: ADME

Chain of Glycogen synthase kinase-3 beta (P49841 whole entry): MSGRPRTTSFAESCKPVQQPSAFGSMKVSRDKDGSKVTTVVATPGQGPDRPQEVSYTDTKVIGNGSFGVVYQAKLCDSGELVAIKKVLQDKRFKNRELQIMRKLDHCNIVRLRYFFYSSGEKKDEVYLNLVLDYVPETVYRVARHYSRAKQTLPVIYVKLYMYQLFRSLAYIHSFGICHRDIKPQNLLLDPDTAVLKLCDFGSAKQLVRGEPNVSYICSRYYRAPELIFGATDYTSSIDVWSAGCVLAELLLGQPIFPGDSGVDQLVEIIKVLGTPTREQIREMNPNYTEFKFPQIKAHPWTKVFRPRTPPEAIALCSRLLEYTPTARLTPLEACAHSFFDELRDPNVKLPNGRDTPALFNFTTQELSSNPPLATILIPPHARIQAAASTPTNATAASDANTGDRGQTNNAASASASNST
Chain of Cytochrome P450 2D6 (P10635 whole entry): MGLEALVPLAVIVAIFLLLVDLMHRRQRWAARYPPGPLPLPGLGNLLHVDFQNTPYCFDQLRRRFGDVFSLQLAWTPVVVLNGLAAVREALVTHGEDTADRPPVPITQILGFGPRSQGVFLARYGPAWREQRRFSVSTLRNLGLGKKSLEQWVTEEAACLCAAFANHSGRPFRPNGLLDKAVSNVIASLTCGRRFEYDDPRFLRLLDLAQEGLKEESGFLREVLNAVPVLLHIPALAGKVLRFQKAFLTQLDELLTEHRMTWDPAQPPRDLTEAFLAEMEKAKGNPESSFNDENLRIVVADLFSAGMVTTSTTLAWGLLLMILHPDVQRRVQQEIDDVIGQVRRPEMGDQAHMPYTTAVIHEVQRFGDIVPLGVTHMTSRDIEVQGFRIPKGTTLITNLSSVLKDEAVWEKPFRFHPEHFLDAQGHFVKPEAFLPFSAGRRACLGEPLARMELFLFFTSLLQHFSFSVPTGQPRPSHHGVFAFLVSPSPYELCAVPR
Chain of Cytochrome P450 3A4 (P08684 whole entry): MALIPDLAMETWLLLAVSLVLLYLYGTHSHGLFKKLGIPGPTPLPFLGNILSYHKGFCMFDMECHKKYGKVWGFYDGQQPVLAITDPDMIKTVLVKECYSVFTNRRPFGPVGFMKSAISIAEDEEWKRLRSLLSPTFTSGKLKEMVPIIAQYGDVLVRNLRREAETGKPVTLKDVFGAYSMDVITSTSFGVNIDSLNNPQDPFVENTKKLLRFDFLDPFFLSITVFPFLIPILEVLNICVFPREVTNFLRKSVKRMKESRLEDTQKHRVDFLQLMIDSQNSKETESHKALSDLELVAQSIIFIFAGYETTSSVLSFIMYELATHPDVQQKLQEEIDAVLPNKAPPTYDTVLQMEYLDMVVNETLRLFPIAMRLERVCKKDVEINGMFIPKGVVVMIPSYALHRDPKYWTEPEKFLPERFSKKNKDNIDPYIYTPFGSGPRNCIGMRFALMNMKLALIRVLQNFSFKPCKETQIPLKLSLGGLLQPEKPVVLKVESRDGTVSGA
Chain of Casein kinase I isoform alpha (P48729 whole entry, canonical isoform): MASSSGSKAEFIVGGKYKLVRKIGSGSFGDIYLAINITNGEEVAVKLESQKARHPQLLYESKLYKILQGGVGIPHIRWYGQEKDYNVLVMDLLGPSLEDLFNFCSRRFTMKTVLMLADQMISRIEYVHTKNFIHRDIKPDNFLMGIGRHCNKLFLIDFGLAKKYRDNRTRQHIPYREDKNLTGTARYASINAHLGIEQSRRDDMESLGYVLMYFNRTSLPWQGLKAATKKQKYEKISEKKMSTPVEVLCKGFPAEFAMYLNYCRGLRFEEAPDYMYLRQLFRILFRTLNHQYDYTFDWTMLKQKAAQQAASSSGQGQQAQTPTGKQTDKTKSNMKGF

Row | SMILES | IC50 [1] [µM] | IC50 (Cytochrome P450 3A4) [µM] | IC50 (Cytochrome P450 2D6) [µM] | IC50 (Cytochrome P450 1A2) [µM] | Intrinsic clearance (Liver microsome [2]) [µL/min/mg] | other results
1 | COc1cccc([C@H]2CN(c3nc(-c4ccncn4)cc(=O)n3C)CCO2)c1 | 0.0046 | > 50 | 26.6 | > 50 | 130 | 
2 | Cn1c(N2CCO[C@@H](c3ccc(F)cc3)C2)nc(-c2ccncc2F)cc1=O | 0.0074 | > 50 | 22.1 | 5.5 |  | 
3 | COc1cnccc1-c1cc(=O)n(C)c(N2CCO[C@@H](c3ccc(F)cc3)C2)n1 | 0.791 |  |  |  |  | 
4 | Cn1c(N2CCO[C@@H](c3ccc(C#N)cc3)C2)nc(-c2ccncn2)cc1=O | 0.013 |  | 4.5 | > 50 | 30 | 
5 | COc1ccc([C@H]2CN(c3nc(-c4ccncn4)cc(=O)n3C)CCO2)cc1 | 0.0029 |  | 6.9 | > 50 | 110 | 
6 | Cn1c(N2CCO[C@@H](c3ccccc3F)C2)nc(-c2ccncn2)cc1=O | 0.0032 |  | 32.4 | 23.3 | 100 | 
7 | COc1ccccc1[C@H]1CN(c2nc(-c3ccncn3)cc(=O)n2C)CCO1 | 0.00087 |  | 16 | 15.7 | 190 | 
8 | COc1cc(F)ccc1[C@H]1CN(c2nc(-c3ccncn3)cc(=O)n2C)CCO1 | 0.00047 |  | 18 | 16.5 | 180 | 
9 | COc1cccc(OC)c1[C@H]1CN(c2nc(-c3ccncn3)cc(=O)n2C)CCO1 | 0.00023 |  | > 50 | > 50 | 200 | 
10 | Cn1c(N2CCO[C@@H](c3ccc(C#N)cc3F)C2)nc(-c2ccncn2)cc1=O | 0.0065 |  | 26.7 | > 50 | 30 | 
11 | Cn1c(N2CCO[C@@H](c3c(F)cccc3Cl)C2)nc(-c2ccncn2)cc1=O | 0.00064 |  | 32.3 | 19.5 | 70 | 
12 | Cn1c(NCC(=O)c2ccccc2)nc(-c2ccncc2)cc1=O |  | > 50 | > 50 |  |  | 

More lines, main results first:

Row | IC50 [1] [µM] | IC50 (Cytochrome P450 3A4) [µM] | IC50 (Cytochrome P450 2D6) [µM] | IC50 (Cytochrome P450 1A2) [µM] | Intrinsic clearance (Liver microsome [2]) [µL/min/mg] | SMILES | other results
13 | 0.022 | > 50 | 44.2 | 17.1 |  | Cn1c(N2CCO[C@@H](c3ccc(F)cc3)C2)nc(-c2ccncc2)cc1=O | 
14 | 0.077 |  |  |  |  | Cn1c(N2CCO[C@H](c3ccc(F)cc3)C2)nc(-c2ccncc2)cc1=O | 
15 | 0.43 |  |  |  |  | Cn1c(N2CCO[C@@H](c3ccc(F)cc3)C2)nc(-c2ccncc2Cl)cc1=O | 
16 | 2.47 |  |  |  |  | Cc1cnccc1-c1cc(=O)n(C)c(N2CCO[C@@H](c3ccc(F)cc3)C2)n1 | 
17 | 0.903 |  |  |  |  | Cn1c(N2CCO[C@@H](c3ccc(F)cc3)C2)nc(-c2ccnc(Cl)c2)cc1=O | 
18 | 0.012 | > 50 | 39.7 | 29.4 | 60 | Cn1c(N2CCO[C@@H](c3ccc(F)cc3)C2)nc(-c2ccncn2)cc1=O | bioavailability [3]: 37%; Cmax (Rattus norvegicus): 221 ng/mL; half-life [4]: 1.7 h; Papp [5]: 58.3 ×10⁻⁶ cm/s; AUC(0-inf) [6]: 1300 ng·h/mL; IC50 [7]: 1.5 µM; Kp [8]: 3.1; clearance [9]: 48.3 mL/min/kg; efflux ratio (MDR1 (P-glycoprotein)): 1; Vd [10]: 2.4 L/kg
19 | 0.051 | > 50 | 47.4 | 23.1 |  | Cn1c(N2CCOC(c3ccccc3)C2)nc(-c2ccncc2)cc1=O (racemic) | CLH (Liver microsome [11]): 155 µL/min/mg
20 | 0.027 | > 50 | 35.8 | 23.9 |  | Cn1c(N2CCOC(c3ccc(F)cc3)C2)nc(-c2ccncc2)cc1=O (racemic) | CLH (Liver microsome [11]): 104 µL/min/mg
